From patent US7618968B2, “Aryl triazines as LPAAT-β inhibitors and uses thereof” (Cell Therapeutics, Inc., priority 2001, dated 2009) come the findings set out here.

Molecules are shown by their SMILES.

The target in the test is T1, LPAAT-β (Homo sapiens, UniProt O15120).
T1 construct: the full-length human LPAAT-β cDNA was amplified by PCR; poly-histidine tag (from pFastBac HTc vector) (N); made in house; host or cells: Sf9 insect cells (baculovirus); membrane fraction used
T1 sequence (O15120 24-278): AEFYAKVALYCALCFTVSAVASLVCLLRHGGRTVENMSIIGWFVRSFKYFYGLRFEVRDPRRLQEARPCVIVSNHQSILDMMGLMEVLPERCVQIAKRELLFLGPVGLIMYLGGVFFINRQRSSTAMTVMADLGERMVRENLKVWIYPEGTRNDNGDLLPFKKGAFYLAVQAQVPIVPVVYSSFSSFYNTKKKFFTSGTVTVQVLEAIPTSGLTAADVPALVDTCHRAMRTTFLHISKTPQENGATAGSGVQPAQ
Briefly: LPAAT-β cell-free assay (colorimetric primary screen, radiometric/fluorescent TLC secondary assay). Format: biochemical. The note with it: Sf9 cell membrane overexpressing LPAAT-β. The source says:
A. Production of Recombinant LPAAT-β for Assays
For the construction of Baculovirus expression vectors, the full-length human LPAAT-β cDNA was amplified by PCR from the DNA template pCE9.LPAAT-β (West et al., DNA Cell Biol. 16:691-701 (1997)) using the primers 5′-[…] […] […] […]-3′ (olpb1F; SEQ ID NO:1) and 5′-[…] […] […]-3′ (olpb1R; SEQ ID NO:2). The ˜870 bp fragment generated was reamplified by PCR using the primers 5′[…] […] […] […] ATC-3′ (olpb2F; SEQ ID NO:3) and 5′-[…] […] […]-3′ (olpb1R; SEQ ID NO:2). The ˜890 bp fragment generated was then cleaved with Sal I and Xba I for insertion into pFastBac™ HTc vector (Life Technologies, Gaithersberg, Md.) between the Sal I and Xba I sites for the generation of the plasmid pFB.LPAAT-β. This plasmid was then transformed into E. coli DH10Bac™ (Life Technologies, Gaithersberg, Md.) for the generation of recombinant Bacmid DNA for transfection in HighFive (Invitrogen, San Diego, Calif.) or SF9 insect cells for the production of recombinant Baculovirus stocks using the protocol described in the Bac-to-Bac® Baculovirus Expression System (Life Technologies, Gaithersberg, Md.), a eukaryotic expression system for generating recombinant baculovirus through site-specific transposition in E. coli. Viral stocks harvested from the transfected cells can then be used to infect fresh insect cells for the subsequence expression of LPAAT-β fusion protein with a poly-histidine tag and a myc-epitope near its N-terminus. The membrane fraction from these Sf9 cells would be the source of LPAAT enzyme.
B. Preparation of Cell Membranes from Sf9 Cells
For the preparation of membranes from Sf9 Cells, all steps are performed on ice or at 4° C. Sf9 cell pellets (˜10^8 cells) were thawed and resuspended in 1-2 ml of buffer A (20 mM Hepes, pH 7.5, 1 mM DTT, 1 mM EDTA, 20% w/v glycerol, 1 mM Benzamidine, 1 μg/ml soybean trypsin inhibitor (SBTI), 1 μg/ml pepstatin A) w/o DTT but with 1 mM Pefabloc. The cells were lysed by sonication using a Branson Sonifier at output=2, duty cycle=2, 10 pulses each at 10s. with the tip of small sonicator probe submerged but not touching the walls. DTT was then added to 1 mM from a 1 M stock. The samples were centrifuged at 1500 rpm for 5 min. The low speed supernatant was saved and centrifuged (TLA 100.3 rotor, polycarbonate tubes, 2 ml/tube or 1.5 ml/tube minimum) at 100000×g for 1 hr. The high speed pellet was resuspend in Buffer A with a probe sonicator (10 pulses @ output #2 and duty cycle 20%) as a source of LPAAT enzyme.
C. Assay of LPAAT-β Activity
LPAAT-β catalyzes the transfer of an acyl group from a donor such as acyl-CoA to LPA. The transfer of the acyl group from acyl-CoA to LPA leads to the release of free CoA, which can be reacted with the thiol reagent, 5,5′-dithiobis(2-nitrobenzoic acid) (DTNB). The reaction between DTNB and the free sulfhydryl group from CoA generates a yellow-colored product, 3-carboxylato-4-nitrothiophenolate (CNP), that absorbs at 413 nm. LPAAT-β derived from Sf9 cell membrane overexpressing LPAAT-β were resuspended in HEPES saline buffer (20 mM HEPES pH 7.5, 150 mM NaCl), 1 mg/ml BSA and 72 μl aliquots were distributed into 96-well microtiter plates. 8 μl of compound of interest at 200 μM dissolved in 100% DMSO was added into each well. 20 μl of 1 mM 18:1-CoA and 1 mM sn-1-18:1 lysoPA was then added to each well to initiate the reaction and allowed to run at room temperature for 25 min. 100 μl of 1 mM DTNB in 100% ethanol was then added to each well to quench the reaction and for color development. The absorbance at 405 nm, measured using a spectrophotometer plate reader, is proportional to the activity of LPAAT-β in the sample. This colorimetric assay was used for the high throughput screening of LPAAT inhibitors.

For orientation: IC50 means the midpoint of a concentration-inhibition curve. Low values mean inhibition by little substance, high ones a need for much substance. `CCCOc1ccc(Cl)cc1-c1nc(N)nc(Nc2ccc(Cl)cc2)n1` [Example 50, N-(4-Chloro-phenyl)-6-(5-chloro-2-propoxy-phenyl)-[1,3,5]triazine-2,4-diamine] showed an IC50 of 0.2 µM.

The compound `CSc1nc(Nc2ccc(Br)cc2)nc(-c2cc(Cl)ccc2C)n1` [Example 29, (4-Bromo-phenyl)-[4-(5-chloro-2-methyl-phenyl)-6-methylsulfanyl-[1,3,5]triazin-2-yl]-amine] gave an IC50 of 1.1 µM. Compared with the last compound, the IC50 is about 5.5-fold higher.

Regarding `C=Cc1ccc(Nc2nc(N)nc(-c3cc(Cl)ccc3C)n2)cc1` [Example 67, 6-(5-Chloro-2-methyl-phenyl)-N-(4-vinyl-phenyl)-[1,3,5]triazine-2,4-diamine], the midpoint of inhibition, the IC50, lay at 0.71 µM.

In the case of `Cc1nc(Nc2ccc(Br)cc2)nc(-c2cc(Cl)ccc2C)n1` [Example 23], the IC50 was found to be 0.014 µM.

In turn, `Cc1ccc(Cl)cc1-c1nc(N)nc(Nc2ccc(COC(=O)CC[C@H](N)C(=O)O)cc2)n1` [Example 63, (S)-2-Amino-pentanedioic acid 5-{4-[4-amino-6-(5-chloro-2-methyl-phenyl)-[1,3,5]triazin-2-ylamino]-benzyl}ester] returned an IC50 of 3.1 µM.

As for `Nc1nc(Nc2ccc(Cl)cc2)nc(-c2cc(Cl)ccc2Br)n1` [Example 80, 6-(2-Bromo-5-chloro-phenyl)-N-(4-chloro-phenyl)-[1,3,5]triazine-2,4-diamine], the midpoint of inhibition, the IC50, lay at 0.14 µM.

As for `NCc1nc(Nc2ccc(Br)cc2)nc(-c2cc(Cl)ccc2Cl)n1` [Example 27], the midpoint of inhibition, the IC50, lay at 2.7 µM.

As to `CNc1nc(Nc2ccc(CO)cc2)nc(-c2cc(Cl)ccc2C)n1` [Example 74, {4-[4-(5-Chloro-2-methyl-phenyl)-6-methylamino-[1,3,5]-triazin-2-ylamino]-phenyl}-methanol], the IC50 stood at 0.68 µM.

In turn, `Cc1ccc(Nc2nc(N)nc(-c3cc(Cl)ccc3Cl)n2)cc1` [Example 49, 6-(2,5-Dichloro-phenyl)-N-p-tolyl-[1,3,5]triazine-2,4-diamine] yielded an IC50 of 0.21 µM.

Regarding `COc1ccc(Cl)cc1-c1nc(N)nc(Nc2ccc(F)cc2)n1` [Example 15, 6-(5-Chloro-2-methoxyphenyl)-N-(4-fluorophenyl)-[1,3,5]triazine-2,4-diamine], the midpoint of inhibition, the IC50, lay at 0.43 µM.

Compound `CCOc1ccc(Cl)cc1-c1nc(N)nc(Nc2ccc3cn[nH]c3c2)n1` [Example 51, 6-(5-Chloro-2-ethoxy-phenyl)-N-(1H-indazol-6-yl)-[1,3,5]triazine-2,4-diamine] had an IC50 of 0.6 µM.

In turn, `CCOc1ccc(Cl)cc1-c1nc(N)nc(Nc2ccc(Cl)cc2)n1` [Example 7, 6-(5-Chloro-2-ethoxyphenyl)-N-(4-Chlorophenyl)-[1,3,5]triazine-2,4-diamine] showed an IC50 of 0.14 µM.

`COc1ccc(Cl)cc1-c1nc(N)nc(Nc2ccc(Br)cc2)n1` [Example 10, N-2-(4-Bromophenyl)-6-(5-chloro-2-methoxyphenyl)-[1,3,5]triazine-2,4-diamine] came in with an IC50 of 0.076 µM.

In turn, `Cc1ccc(Cl)cc1-c1nc(N)nc(Nc2ccc3c(c2)OCO3)n1` [Example 19, N-Benzo[1.3]dioxol-5-yl-6-(5-chloro-2-methyl-phenyl)-[1,3,5]triazine-2,4-diamine] registered an IC50 of 0.2 µM.

For `Cc1ccc(Cl)cc1-c1nc(Nc2ccc(Cl)cc2)nc(N2CCCCC2)n1` [Example 31], inhibition was half-maximal at 6 µM (IC50).

`CCOc1ccc(Cl)cc1-c1nc(N)nc(Nc2ccc(CO)cc2)n1` [Example 53, {4-[4-Amino-6-(5-chloro-2-ethoxy-phenyl) [1,3,5]triazin-2-ylamino]-phenyl}-methanol] had an IC50 of 1.8 µM.

`CCOc1ccc(Cl)cc1-c1nc(N)nc(Nc2ccc(C)cc2)n1` [Example 61, 6-(5-Chloro-2-ethoxyphenyl)-N-p-tolyl-[1,3,5]triazine-2,4-diamine] came in with an IC50 of 2.3 µM.

In turn, `Cc1ccc(Cl)cc1-c1ncnc(Nc2ccc(Cl)cc2)n1` [Example 33, [6-(5-Chloro-2-methyl-phenyl)-[1,3,5]triazin-4-yl]-(4-chloro-phenyl)-amine] registered an IC50 of 0.24 µM.

Turning to `Cc1ccc(Nc2nc(N)nc(-c3cc(Cl)ccc3C)n2)cc1C` [Example 59, 6-(5-Chloro-2-methyl-phenyl)-N-(3,4-dimethyl-phenyl)-[1,3,5]triazine-2,4-diamine], the IC50 stood at 0.4 µM.

In the case of `CNc1ccc(Cl)cc1-c1nc(N)nc(Nc2ccc(Cl)cc2)n1` [Example 44, 6-(5-Chloro-2-methylaminophenyl)-N-(4-chlorophenyl)-[1,3,5]triazine-2,4-diamine], the IC50 amounted to 1.5 µM.

For `Cc1ccc(Cl)cc1-c1nc(N)nc(Nc2ccc(COC(=O)C[C@H](N)C(=O)O)cc2)n1` [Example 73, (S)-2-Amino-succinic acid 4-{4-[4-amino-6-(5-chloro-2-methyl-phenyl)-[1,3,5]triazin-2-ylamino]-benzyl}ester], 2.1 µM corresponded to half-maximal inhibition (IC50). The IC50 values of the last two compounds are within 1.5-fold of each other.

For `Cc1ccc(Cl)cc1-c1nc(N)nc(Nc2ccc(COC(=O)[C@H](C)N)cc2)n1` [Example 77, 2-Amino-propionic acid 4-[4-amino-6-(5-chloro-2-methyl-phenyl)-[1,3,5]-triazin-2-ylamino]-benzyl ester], the IC50 was found to be 1.3 µM.

In the case of `CCOc1ccc(Cl)cc1-c1nc(N)nc(Nc2ccc(C(O)CO)cc2)n1` (centres unmarked) [Example 69], the IC50 worked out at 2.6 µM.
